Laboratory results published in patent US20250230193A1, “CYCLIC COMPOUND HAVING SELECTIVE KRAS INHIBITORY EFFECT ON HRAS AND NRAS” (CHUGAI SEIYAKU KABUSHIKI KAISHA, priority 2022, published 2025).
Where a SMILES comes first, the peptide text is derived from it. Bridges are numbered along the chain shown (N, C = ends). [ ]: non-standard residue; d: D form. The star is where a group is joined. ξ: configuration not given here. hPhe(3-Cl-4-CF3) = N[C@@H](CCc1ccc(C(F)(F)F)c(Cl)c1)C(=O)O; NPrPhe(4-CF3) = CCCN[C@@H](Cc1ccc(C(F)(F)F)cc1)C(=O)O; NMeGly(cPent) = CN[C@H](C(=O)O)C1CCCC1; Pro(4,4-F2) = O=C(O)[C@@H]1CC(F)(F)CN1; NMeL = CN[C@@H](CC(C)C)C(=O)O; ξNMeD = CNC(CC(=O)O)C(=O)O; Morpholide = C1CN(*)CCO1; Ac5c = NC1(C(=O)O)CCCC1; Ac4c = NC1(C(=O)O)CCC1; ξP = O=C(O)C1CCCN1; Sar = CNCC(=O)O

What was measured:
[1] = biological target: GDP-bound HRAS wild-type protein (Homo sapiens, UniProt P01112); assay: Binding to HRAS by surface plasmon resonance (SPR), Single Cycle Kinetics; conditions: for HRAS/KRAS (ratio of KD value with respect to HRAS to KD value with respect to KRAS): GDP-bound HRAS wild-type vs GDP-bound KRAS wild-type
[2] = biological target: GDP-bound NRAS wild-type protein (Homo sapiens, UniProt P01111); assay: Binding to NRAS by surface plasmon resonance (SPR), Single Cycle Kinetics; conditions: for NRAS/KRAS (ratio of KD value with respect to NRAS to KD value with respect to KRAS): GDP-bound NRAS wild-type vs GDP-bound KRAS wild-type
GDP-bound NRAS wild-type protein, sequence (P01111 whole entry): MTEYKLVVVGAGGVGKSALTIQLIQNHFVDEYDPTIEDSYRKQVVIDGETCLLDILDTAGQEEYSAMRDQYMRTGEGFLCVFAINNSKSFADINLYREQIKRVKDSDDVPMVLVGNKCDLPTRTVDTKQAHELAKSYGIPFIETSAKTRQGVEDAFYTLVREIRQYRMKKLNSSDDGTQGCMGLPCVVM

GDP-bound HRAS wild-type protein, sequence (P01112 whole entry): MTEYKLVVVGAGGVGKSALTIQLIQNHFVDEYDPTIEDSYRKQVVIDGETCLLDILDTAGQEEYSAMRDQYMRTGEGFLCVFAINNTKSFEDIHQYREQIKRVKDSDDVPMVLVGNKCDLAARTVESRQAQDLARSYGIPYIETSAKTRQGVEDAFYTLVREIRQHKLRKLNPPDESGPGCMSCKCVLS

## CCC(CC)[C@H]1C(=O)N(C)[C@H](C(=O)N(C)C)CC(=O)N(C)[C@@H](COC)C(=O)N[C@@H]([C@@H](C)CC)C(=O)N(C)CC(=O)N(C)[C@H]2C/C=C\CCN(C2=O)[C@@H](Cc2ccc(C(F)(F)F)cc2)C(=O)N(C)CC(=O)N[C@@H](CCc2cc(F)c(C(F)(F)F)c(F)c2)C(=O)N2CCOC[C@H]2C(=O)NC2(CC(C)(C)C2)C(=O)N1C [PP2917]
[1]; KD ratio HRAS/KRAS, class symbols
  HRAS/KRAS (ratio of KD value with respect to GDP-bound HRAS wild-type protein to KD value with respect to KRAS): A (a compound having 10 or more and less than 20 is denoted as A)
[2]; KD ratio NRAS/KRAS, class symbols
  NRAS/KRAS (ratio of KD value with respect to GDP-bound NRAS wild-type protein to KD value with respect to KRAS): AA (a compound having 20 or more is denoted as AA)

## CCO[C@@H]1C[C@H]2C(=O)NC3(CCC3)C(=O)N(C)[C@@H](C3CCCC3)C(=O)N(C)[C@H](C(=O)N(C)C)CC(=O)N(C)[C@@H](CC)C(=O)N[C@@H]([C@@H](C)CC)C(=O)N[C@@H](C)C(=O)N(C)[C@H]3C/C=C\CCN(C3=O)[C@@H](Cc3ccc(C(F)(F)F)cc3)C(=O)N(C)CC(=O)N[C@@H](CCc3cc(F)c(C(F)(F)F)c(F)c3)C(=O)N2C1 [PP1065]
[1]; KD ratio, SPR
  HRAS/KRAS (ratio of KD value with respect to HRAS to KD value with respect to KRAS): B (a compound having 3 or more and less than 10 is denoted as B)
[2]; KD ratio, SPR
  NRAS/KRAS (ratio of KD value with respect to NRAS to KD value with respect to KRAS): A (a compound having 10 or more and less than 20 is denoted as A)

## CCCN1C(=O)CN(C)C(=O)CNC(=O)[C@H]([C@@H](C)CC)NC(=O)[C@H](CC(C)C)N(C)C(=O)C[C@@H](C(=O)N2CCOCC2)NC(=O)[C@H](C2CCCC2)N(C)C(=O)C2(CCC2)NC(=O)[C@@H]2CC(F)(F)CN2C(=O)[C@H](CCc2ccc(C(F)(F)F)c(Cl)c2)NC(=O)CN(C)C(=O)[C@@H]1Cc1ccc(C(F)(F)F)cc1 [PP0328] ([NMeL]IG[Sar][NPrPhe(4-CF3)][Sar][hPhe(3-Cl-4-CF3)][Pro(4,4-F2)][Ac4c][NMeGly(cPent)]D-Morpholide; lactam N-11)
[1]; KD ratio HRAS/KRAS, SPR
  HRAS/KRAS (ratio of KD for GDP-bound HRAS wild-type to KD for KRAS): B (a compound having 3 or more and less than 10 is denoted as B)
[2]; KD ratio NRAS/KRAS, SPR
  NRAS/KRAS (ratio of KD for GDP-bound NRAS wild-type to KD for KRAS): B (a compound having 3 or more and less than 10 is denoted as B)

## CCCN1C(=O)CN(C)C(=O)CN(C)C(=O)[C@H]([C@@H](C)CC)NC(=O)[C@H](CC(C)C)N(C)C(=O)CC(C(=O)N2CCOCC2)N(C)C(=O)[C@H](C2CCCC2)N(C)C(=O)C2(CCCC2)NC(=O)[C@@H]2CCCN2C(=O)[C@H](CCc2ccc(C(F)(F)F)c(Cl)c2)NC(=O)C2CCCN2C(=O)[C@@H]1Cc1ccc(C(F)(F)F)cc1 (some centres unmarked) [PP0149] ([NMeL]I[Sar][Sar][NPrPhe(4-CF3)][ξP][hPhe(3-Cl-4-CF3)]P[Ac5c][NMeGly(cPent)][ξNMeD]-Morpholide; lactam N-11)
[1]; KD ratio HRAS/KRAS, SPR
  HRAS/KRAS (ratio of KD for GDP-bound HRAS wild-type to KD for KRAS): B (a compound having 3 or more and less than 10 is denoted as B)
[2]; KD ratio NRAS/KRAS, SPR
  NRAS/KRAS (ratio of KD for GDP-bound NRAS wild-type to KD for KRAS): C (A compound having a KD ratio of 0.1 or more and less than 3 is denoted as C)

## CCOC[C@H]1C(=O)N[C@@H]([C@@H](C)CC)C(=O)N(C)CC(=O)N(C)[C@H]2C/C=C\CCN(C2=O)[C@@H](Cc2ccc(C)cc2)C(=O)N(C)CC(=O)N[C@@H](CCc2cc(F)c(C(F)(F)F)c(F)c2)C(=O)N2C[C@H](OCC)C[C@H]2C(=O)NC2(CC(C)(C)C2)C(=O)N(C)[C@@H](C2CCCC2)C(=O)N(C)[C@H](C(=O)N(C)C)CC(=O)N1C [PP2397]
[1]; SPR
  HRAS/KRAS (ratio of KD value with respect to HRAS to KD value with respect to KRAS): A (a compound having 10 or more and less than 20 is denoted as A)
[2]; SPR
  NRAS/KRAS (ratio of KD value with respect to NRAS to KD value with respect to KRAS): A (a compound having 10 or more and less than 20 is denoted as A)

## CCO[C@@H]1C[C@H]2C(=O)NC3(CCC3)C(=O)N(C)[C@@H](C3CCCC3)C(=O)N(C)[C@H](C(=O)N(C)CC)CC(=O)N(C)[C@@H](CC(C)C)C(=O)N[C@@H]([C@@H](C)CC)C(=O)N(C)CC(=O)N(C)[C@H]3C/C=C\CCN(C3=O)[C@@H](Cc3ccc(C(F)(F)F)cc3)C(=O)N(C)CC(=O)N[C@@H](CCc3cc(F)c(C(F)(F)F)c(F)c3)C(=O)N2C1 [PP1300]
[1]; SPR, KD ratio class
  HRAS/KRAS (ratio of KD value for GDP-bound HRAS wild-type protein to KD value for KRAS): A (a compound having 10 or more and less than 20 is denoted as A)
[2]; SPR, KD ratio class
  NRAS/KRAS (ratio of KD value for GDP-bound NRAS wild-type protein to KD value for KRAS): A (a compound having 10 or more and less than 20 is denoted as A)

## CCC(CC)[C@H]1C(=O)N(C)[C@H](C(=O)N(C)C)CC(=O)N(C)[C@@H](CC2CC2)C(=O)N[C@@H]([C@@H](C)CC)C(=O)N(C)CC(=O)N(C)[C@H]2C/C=C\CCN(C2=O)[C@@H](CC2CCC(F)(F)CC2)C(=O)N(C)CC(=O)N[C@@H](CCc2ccc(C(F)(F)F)c(OC)c2)C(=O)N2C[C@@H](C)C[C@H]2C(=O)NC2(CC(C)(C)C2)C(=O)N1C [PP2494]
[1]; SPR
  HRAS/KRAS (ratio of KD value with respect to HRAS to KD value with respect to KRAS): A (a compound having 10 or more and less than 20 is denoted as A)
[2]; SPR
  NRAS/KRAS (ratio of KD value with respect to NRAS to KD value with respect to KRAS): A (a compound having 10 or more and less than 20 is denoted as A)
